Data published in patent publication US20150087610A1, “Method of Modifying Fertility” (Monell Chemical Senses Center, priority 2012, published 2015).
“Also recorded” adds a separate entry of the source.

Tests used:
mouse spermatids = assay: Calcium imaging of mouse spermatids with bitter tastants; type: cell-based; conditions: Mus musculus, read-out: EC50 of calcium response
Description: Eight adult male mice of each genotype: C57BL/6 and Gnat^−/− mice, were sacrificed, and the testis and caudal epididymis were immediately removed and transferred into HS solution containing (mM): 135 NaCl, 5 KCl, 2 CaCl2, 1 MgCl2, 30 Hepes, 10 glucose, 10 lactic acid, and 1 pyruvic acid (pH adjusted to 7.4 with NaOH) (Xia et al., 2007). For isolation of spermatids, seminiferous tubules from mouse testicle were dissected out and placed in a […] containing 3 ml of HS medium. The tissue was finely minced and gently triturated with a fire-polished pipette, and the mixture was filtered with a 100 μm nylon cell strainer (BD Falcon, Bedford, Mass.). The dissociated cells were collected in a 1.5 ml plastic tube, and washed once in HS medium by centrifugation at 300 g for 4 min and resuspended in HS medium.
(§1) Mouse spermatogenic cells were loaded with 5 μM acetoxymethylester of Fura-2 (Fora-2/AM) and 80 μg/ml pluronic F127 (Molecular Probes, Eugene, Oreg.) and transferred onto coverslips (22×60 mm, No. 0, Thomas Scientific Co.) for at least 1 hour at room temperature. The coverslip with spermatogenic cells was mounted in a recording chamber and superfused with HS or HS containing tasting compounds or the bitter blocker probenecid (Sigma-Aldrich, St. Louis, Mo.) via a valve controller (VC-8, Warner, USA).
(§2) Imaging of calcium responses was conducted as previously described (Gomez et al, 2005). Stimulation duration was 30 seconds and perfusion rate was 0.8 ml/min. Cells were excited at 340 nm and 380 nm and signals at 510 nm were captured by a cooled CCD camera. The change in fluorescence ratio (F=F340/F380) was recorded for regions-of-interest drawn on the cells.
To analyze the dose-dependent calcium responses, the response intensity (FN) was normalized and expressed as ΔF/F0 value: ΔF/F0=(F−F0)/F0. Here F0 is the fluorescence at the beginning of stimulation, i.e., time 0, and F is the peak fluorescence ratio evoked by the stimulation. Dose-response curves and EC50 values were generated based on the normalized responses using the software Origins by nonlinear regression.

human T2r14 = target: T1, human T2r14 (Homo sapiens, UniProt Q9NYV8); conditions: heterologously expressed, most sensitive of five human T2rs; cited from earlier work
T1 sequence (Q9NYV8 1-317): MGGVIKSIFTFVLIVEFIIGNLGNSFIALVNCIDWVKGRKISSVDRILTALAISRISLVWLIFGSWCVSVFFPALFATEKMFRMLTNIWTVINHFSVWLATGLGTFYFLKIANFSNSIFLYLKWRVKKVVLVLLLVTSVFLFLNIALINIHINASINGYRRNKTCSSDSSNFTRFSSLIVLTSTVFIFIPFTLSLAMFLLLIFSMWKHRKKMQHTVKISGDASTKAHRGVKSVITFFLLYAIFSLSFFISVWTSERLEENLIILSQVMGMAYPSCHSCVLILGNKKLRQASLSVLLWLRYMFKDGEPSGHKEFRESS

C57B/6L wild-type sperm = assay: Bitter blocker probenecid on calcium responses of wild-type mouse sperm; type: cell-based; conditions: for effect of blocker on response to PTC: preincubation 5 min, 0.3 mM PTC; for response to PTC after wash-off of blocker: after wash-off of 1 mM probenecid
Description: as §1, §2
To confirm whether the germ cells' responses to bitter tastants were mediated by the bitter taste receptors, we examined the effect of the bitter taste receptor blocker probenecid (Greene et al, 2001) and nullification of the α-gustducin gene in Gnat3 α-gustducin knockout mice described in Wong et al, 1996. Probenecid is known to inhibit the responses of human T2R16, 38 and 43 to salicin, PTC and PROP, and aloin, but not that of T2R31 to saccharin (Greene et al, 2011).

human T2R16 = target: T2, human T2R16 (Homo sapiens, UniProt Q9NYV7); conditions: response to salicin; cited from earlier work
T2 sequence (Q9NYV7 1-291): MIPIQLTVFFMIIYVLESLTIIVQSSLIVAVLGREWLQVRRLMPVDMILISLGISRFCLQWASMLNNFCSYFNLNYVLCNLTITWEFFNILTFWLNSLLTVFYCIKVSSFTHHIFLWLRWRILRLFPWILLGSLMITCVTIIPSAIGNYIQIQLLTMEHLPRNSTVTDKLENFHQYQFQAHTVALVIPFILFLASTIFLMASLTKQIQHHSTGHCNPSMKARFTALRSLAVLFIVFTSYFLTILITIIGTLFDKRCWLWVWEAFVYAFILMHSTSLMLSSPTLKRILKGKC

human T2R38 = target: T3, human T2R38 (Homo sapiens, UniProt P59533); conditions: response to PTC and PROP; cited from earlier work
T3 sequence (P59533 1-333): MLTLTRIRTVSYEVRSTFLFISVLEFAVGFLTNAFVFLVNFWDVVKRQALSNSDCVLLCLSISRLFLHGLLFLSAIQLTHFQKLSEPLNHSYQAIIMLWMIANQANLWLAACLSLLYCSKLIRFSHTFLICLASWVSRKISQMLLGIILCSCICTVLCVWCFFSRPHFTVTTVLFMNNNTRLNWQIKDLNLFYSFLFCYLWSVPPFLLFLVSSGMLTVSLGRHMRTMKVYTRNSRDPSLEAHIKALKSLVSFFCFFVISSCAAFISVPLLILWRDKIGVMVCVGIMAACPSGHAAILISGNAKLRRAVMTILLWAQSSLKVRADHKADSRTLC

human T2R43 = target: T4, human T2R43 (Homo sapiens, UniProt P59537); conditions: response to aloin; cited from earlier work
T4 sequence (P59537 1-309): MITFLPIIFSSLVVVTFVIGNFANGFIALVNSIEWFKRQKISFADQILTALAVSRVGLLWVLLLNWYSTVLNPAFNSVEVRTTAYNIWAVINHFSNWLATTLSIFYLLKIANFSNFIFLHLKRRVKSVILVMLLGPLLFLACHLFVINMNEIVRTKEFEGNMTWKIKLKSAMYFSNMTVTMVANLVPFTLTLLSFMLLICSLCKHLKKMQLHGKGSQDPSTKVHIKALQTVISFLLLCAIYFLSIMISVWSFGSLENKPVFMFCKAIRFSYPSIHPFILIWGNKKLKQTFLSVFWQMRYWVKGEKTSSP

Row | Compound | EC50 (mouse spermatids) | EC50 (human T2r14) | effect of blocker on response to cycloheximide (C57B/6L wild-type sperm; 1 mM probenecid) | effect of blocker on response to PTC (C57B/6L wild-type sperm; 1 mM probenecid) | effect of blocker on response to PTC (C57B/6L wild-type sperm; 1 mM probenecid, listed as prebenecid) | response to PTC after wash-off of blocker (C57B/6L wild-type sperm) | response to PTC after wash-off of blocker (C57B/6L wild-type sperm; listed as prebenecid) | inhibition of receptor response (human T2R16) | inhibition of receptor response (human T2R38) | inhibition of receptor response (human T2R43)
1 | CC(C)(O)[C@@H]1[C@H]2OC(=O)[C@@H]1[C@]1(O)C[C@H]3O[C@]34C(=O)O[C@H]2[C@]14C [picrotin] | 20 ± 10 µM | 18 µM |  |  |  |  |  |  |  | 
2 | CCCN(CCC)S(=O)(=O)c1ccc(C(=O)O)cc1 [probenecid] |  |  | did not block; also recorded: no inhibitory effect | nearly undetectable | nearly completely suppressed | partially recovered | restored | inhibit | inhibit | inhibit
